Data published in paper PMC6315541, “Nile Tilapia Derived Antimicrobial Peptide TP4 Exerts Antineoplastic Activity Through Microtubule Disruption” (Marine Drugs, 2018).

Tests used:
[1] = test system: microtubule regrowth in A549 cells; assay: Microtubule regrowth assay after nocodazole washout; assay type: cell-based, human; conditions: 10 μg mL^−1 TP4 3 h, nocodazole 20 μM 6 h, washout and recovery medium, α-Tubulin ICC, N = 3
Experimental: To examine whether TP4 may affect microtubule dynamics, A549 cells were treated with TP4, and cytoskeletal elements were analyzed by immunocytochemistry (ICC). […] We then asked whether TP4 treatment may influence tubulin protein levels by performing Western blots on lysates from A549 cells that had been treated with vehicle or TP4. […] We next conducted a microtubule regrowth assay to further address whether TP4 may disrupt microtubule polymerization. TP4 was applied to A549 cells that had been treated with or without Nocodazole (20 μM) treatment for 6 h, which completely depolymerizes the microtubule network. The repolymerization of microtubules was then initialized by the addition of fresh recovery medium, and regrowth was analyzed by ICC.
Figure 2 TP4 disrupts the microtubule network in cancer cells. (A) Cells were stained for α-Tubulin and F-actin. Hoechst33342 was used to stain nuclei. Arrows indicate cells with negative α-Tubulin staining. Bar: 20 μm. (B) Total lysates from cells with mock (labeled C) or TP4 treatment (labeled T) were analyzed by Western blot using antibodies against GAPDH and α-Tubulin. Quantification of the α-Tubulin signal normalized to GAPDH is shown. Mr is the molecular weight. […] Bar: 20 μm (D) Quantification of the number of cells with Tubulin-positive and Tubulin-negative staining. […]

[2] = test system: Pure tubulins (microtubule polymerization); assay: In vitro tubulin polymerization assay; assay type: biochemical
Experimental: To test the models predicted by the molecular docking analysis, TP4 mutants were generated by substitution of Phe1, Ile16, and Arg23 with either Gly or Ala (mutant names and sequences are provided in Figure 5A), and the mutants were analyzed for their interaction with α-Tubulin. The sequence of TP4 is expected to form an α-helix, see Supplementary Figure S1A.
Figure 5 TP4 inhibits microtubule polymerization. (A) Sequences of the TP4 wild type (WT) and mutants. Letters shown in red indicate substituted amino acids. (B,C) Dynamic measurement of the microtubule polymerization. Pure tubulins were assembled in the presence of TP4 (WT), TP4 mutants (MT1-6). H2O, paclitaxel, and nocodazole served as vehicle, positive, and negative controls, respectively.
The Microtubule/Tubulin In Vivo Assay (Cytoskeleton, Inc., Denver, CO, USA) was performed using the “inhibitor condition” provided in the manufacturer’s instructions. Microtubule regrowth was assayed as described previously. Briefly, cells with or without 3 h, 10 μg mL^−1 TP4 treatment were incubated with nocodazole (20 μM) for 6 h at 37 °C. After washing with warm culture medium, cells were incubated for a further 0, 10, or 30 minutes. Fixed cells were stained with the α-Tubulin antibody and for F-actin. Confocal images were acquired on an FV3000 microscope (Olympus Corp., Tokyo, Japan).

FIHHIIGGLFSAGKAIHRLIRRRRR [TP4, synthesized Nile tilapia-derived antimicrobial peptide, Tilapia piscidin 4]
cells with microtubule regrowth defects [1]: increased portion of TP4-treated cells had microtubule regrowth defects | effect on microtubule polymerization ([2]; 10 μg mL^−1 peptide, dynamic measurement, Figure 5B): sufficient to disrupt microtubule polymerization | effect on microtubule polymerization ([2]; 20 μg mL^−1 peptide, compared to controls, Figure 5C): completely inhibited microtubule polymerization
